Data set [1] can be described thus: Half life in mouse liver microsomes at 10 uM in presence of NADPH by LC-MS/MS analysis. The data set is classed as ADME, microsome. Conditions: for half-life at 10 µM: liver microsomes. (In general: Liver microsomes are a subcellular fraction often used to study metabolism.)
A short description of data set [2]: Half life in human liver microsomes at 10 uM in presence of NADPH by LC-MS/MS analysis. In kind it is ADME, microsome. Conditions: for half-life at 10 µM: liver microsomes.
Data set [3] can be described thus: Extraction ratio in mouse liver microsomes at 10 uM in presence of NADPH by LC-MS/MS analysis. In kind it is ADME, microsome. The conditions noted are these: read-out: ERH.
A short description of data set [4]: Extraction ratio in human liver microsomes at 10 uM in presence of NADPH by LC-MS/MS analysis. The data set is classed as ADME, microsome. The conditions noted are these: read-out: ERH.
Data set [5] in a line: Metabolic stability in mouse liver microsomes assessed as parent compound remaining at 10 uM in presence of NADPH after 60 mins by LC-MS/MS analysis. Conditions: 1 h. In kind it is ADME, microsome.
Data set [6] is described as follows: Metabolic stability in human liver microsomes assessed as parent compound remaining at 10 uM in presence of NADPH after 60 mins by LC-MS/MS analysis. The data set is classed as ADME, microsome. The conditions noted are these: 1 h.
The nature of data set [7]: Drug metabolism in human liver microsomes assessed as 6-(4-(o-tolylsulfonyl)piperazin-1-yl)pyridazine-3-carboxamide formation at 10 uM in presence of NADPH after 60 mins by LC-MS/MS analysis. In kind it is ADME, microsome. The conditions noted are these: 1 h.
Data set [8] in a line: Drug level in mouse liver microsomes treated with N-benzyl-6-(4-(o-tolylsulfonyl)piperazin-1-yl)pyridazine-3-carboxamide at 10 uM in presence of NADPH after 60 mins by LC-MS/MS analysis. The data set is classed as ADME, microsome. The conditions noted are these: 1 h.
Data set [9] is described as follows: Drug level in human liver microsomes treated with N-benzyl-6-(4-(o-tolylsulfonyl)piperazin-1-yl)pyridazine-3-carboxamide at 10 uM in presence of NADPH after 60 mins by LC-MS/MS analysis. The data set is classed as ADME, microsome. Conditions: 1 h.
Data set [10] in a line: Drug metabolism in mouse liver microsomes assessed as oxidation at benzene ring A at 10 uM in presence of NADPH after 30 to 60 mins by LC-MS/MS analysis. In kind it is ADME, microsome.
Data set [11] is described as follows: Drug metabolism in mouse liver microsomes assessed as oxidation at benzene ring D at 10 uM in presence of NADPH after 30 to 60 mins by LC-MS/MS analysis. The data set is classed as ADME, microsome.
A short description of data set [12]: Drug metabolism in mouse liver microsomes assessed as oxidation at benzene ring B at 10 uM in presence of NADPH after 30 to 60 mins by LC-MS/MS analysis. The data set is classed as ADME, microsome.
The nature of data set [13]: Drug metabolism in mouse liver microsomes assessed as oxidation at benzene ring C at 10 uM in presence of NADPH after 30 to 60 mins by LC-MS/MS analysis. The data set is classed as ADME, microsome.
A short description of data set [14]: Aqueous solubility in pH 7.4 PBS buffer. In kind it is physicochemical.

SMILES strings stand for the structures.

Broadly, the half-life is the time in which the quantity being followed falls by half.

As to `Cc1ccccc1S(=O)(=O)N1CCN(c2ccc(C(=O)NCc3ccc(F)cc3)nn2)CC1`, the half-life at 10 µM in [1] turned out to be 26 min; in [2] it was 34 min. Besides, the hepatic extraction ratio at 10 µM in [3] worked out at 0.7; in data set [4], 0.56.
Take `Cc1ccccc1S(=O)(=O)N1CCN(c2ccc(C(=O)NCc3ccccc3)nn2)CC1`: the Stability in data set [5] is on record as 42%; in [6], 62%. Moreover, in data set [7], the Drug metabolism result is reported as “Metabolite_Notdetected”. Further, the t1/2 in data set [1] (microsomes, 10 µM) came out at 2 min; in [2] (microsomes, 10 µM), 3 min. Also, the hepatic extraction ratio at 10 µM came out at 0.97 in data set [3] and 0.93 in [4].
In the case of `Cc1ncccc1S(=O)(=O)N1CCN(c2ccc(C(=O)NCc3ccc(F)cc3)nn2)CC1`, the half-life at 10 µM in data set [1] turned out to be 8 min.
`O=C(NCc1ccc(F)cc1)c1ccc(N2CCN(S(=O)(=O)c3cccnc3Cl)CC2)nn1`: in [1], the half-life at 10 µM turned out to be 13 min.
Regarding `Cc1ccccc1S(=O)(=O)N1CCN(c2ccc(C(=O)NCc3cccs3)nn2)CC1`, the half-life at 10 µM in data set [1] is 2 min; in data set [2], 4 min. Moreover, the hepatic extraction ratio at 10 µM worked out at 0.97 in data set [3] and 0.92 in data set [4].
Turning to `O=C(NCc1ccccc1)c1ccc(N2CCN(S(=O)(=O)c3ccccc3Cl)CC2)nn1`, the figures for the half-life at 10 µM in [1] and in data set [2] were 2 min and 5 min, respectively. In addition, the hepatic extraction ratio at 10 µM in data set [3] stood at 0.97; in [4] it was 0.89.
Regarding `Nc1ncccc1S(=O)(=O)N1CCN(c2ccc(C(=O)NCc3ccc(F)cc3)nn2)CC1`, the half-life at 10 µM in data set [1] is 19 min.
For `Cc1ccccc1S(=O)(=O)N1CC2(CN(c3ccc(C(=O)NCc4ccc(F)cc4)nn3)C2)C1`, the half-life at 10 µM in data set [1] stood at 2 min; in data set [2], 1 min. Further, the hepatic extraction ratio at 10 µM is 0.98 in data set [3] and 0.97 in data set [4].
Turning to `Cc1cc(F)ccc1S(=O)(=O)N1CCN(c2ccc(C(=O)NCc3ccc(F)cc3)nn2)CC1`, the half-life at 10 µM in data set [1] amounted to 15 min. The hepatic extraction ratio at 10 µM in data set [3] was 0.8.
With `Cc1nc(C(F)(F)F)ccc1S(=O)(=O)N1CCN(c2ccc(C(=O)NCc3ccc(F)cc3)nn2)CC1`, the half-life at 10 µM in [1] was found to be 23 min.
Consider `O=C(NCc1ccccc1)c1ccc(N2CCC(S(=O)(=O)c3cccc(Cl)c3Cl)CC2)nn1`, for which the half-life at 10 µM in [1] amounted to 20 min; in data set [2], 27 min. For the same molecule, the values for the hepatic extraction ratio at 10 µM in [3] and in [4] were 0.75 and 0.61, respectively.
On to `Cc1ccccc1S(=O)(=O)N1CCN(c2ccc(C(N)=O)nn2)CC1`, for which the Drug metabolism entry in data set [8] and in data set [9] was “Metabolite_Detected” throughout.
`O=C(NCc1ccc(F)cc1)c1ccc(N2CCN(S(=O)(=O)c3ccccc3C(F)(F)F)CC2)nn1`: the half-life at 10 µM in data set [1] turned out to be 31 min. Moreover, the Drug metabolism result in data set [10] is given as “Metabolite_Notdetected”; in [11], “Metabolite_Detected”; in data set [12], “Metabolite_Detected”; in [13] it was “Metabolite_Detected”. In [3], the hepatic extraction ratio at 10 µM stood at 0.66.
`Cc1ccccc1S(=O)(=O)N1CC=C(c2ccc(C(=O)NCc3ccc(F)cc3)nn2)CC1`: the figures for the half-life at 10 µM in data set [1] and in data set [2] were 5 min and 2 min, respectively. Besides, the hepatic extraction ratio at 10 µM in [3] was 0.94; in data set [4], 0.96.
Regarding `N#Cc1ncccc1S(=O)(=O)N1CCN(c2ccc(C(=O)NCc3ccc(F)cc3)[n+]([O-])n2)CC1`, in data set [1], the half-life at 10 µM is 16 min.
For `O=C(NCc1ccc(F)cc1)c1ccc(N2CCN(S(=O)(=O)c3cccnc3O)CC2)nn1`, in data set [1], the half-life at 10 µM was 72 min.
With `Cc1ccccc1S(=O)(=O)N1CCN(c2ccc(C(=O)NCc3cncs3)nn2)CC1`, the half-life at 10 µM in data set [1] worked out at 18 min; in data set [2], 30 min. Moreover, the figures for the hepatic extraction ratio at 10 µM in [3] and in data set [4] were 0.77 and 0.59, respectively.
For the molecule `O=C(NCc1ccc(F)cc1)c1ccc(N2CCN(S(=O)(=O)c3cccnc3N3CCOCC3)CC2)nn1`, the half-life at 10 µM in data set [1] came to 2 min.
With `O=C(NCc1ccccc1)c1ccc(N2CCN(S(=O)(=O)c3cccc(Cl)c3Cl)CC2)nn1`, the half-life at 10 µM in data set [1] came to 14 min; in [2], 16 min. The hepatic extraction ratio at 10 µM in data set [3] amounted to 0.81; in [4], 0.73.
For the molecule `Cc1ccc(F)cc1S(=O)(=O)N1CCN(c2ccc(C(=O)NCc3ccc(F)cc3)nn2)CC1`, the solubility entry in data set [14] is “Insoluble”. Besides, the half-life at 10 µM in [1] came out at 68 min; in data set [2], 12 min. For the same molecule, the hepatic extraction ratio at 10 µM in data set [3] came to 0.47; in [4], 0.78.
For `O=C(NCc1ccc(F)cc1)c1ccc(N2CC3(C2)CN(S(=O)(=O)c2cccnc2Cl)C3)nn1`, the half-life at 10 µM in data set [1] is 113 min; in data set [2], 0.35 min. The hepatic extraction ratio at 10 µM in [4] was 0.29.
On to `O=C(NCc1ccc(F)cc1)c1ccc(N2CCN(S(=O)(=O)c3cccnc3C3CC3)CC2)nn1`, for which the half-life at 10 µM in data set [1] was 6 min.
Regarding `Cc1ccccc1S(=O)(=O)N1CCN(c2cnc(C(=O)NCc3ccc(F)cc3)cn2)CC1`, the half-life at 10 µM in [1] came out at 3 min; in [2], 2 min. Further, the hepatic extraction ratio at 10 µM in [3] and in [4] was 0.95 throughout.
Consider `O=C(NCc1ccc(F)cc1)c1ccc(N2CCN(S(=O)(=O)c3ccc(F)cc3C(F)(F)F)CC2)nn1`, for which the half-life at 10 µM in data set [1] stood at 12 min. Besides, the Drug metabolism entry in data set [10] is “Metabolite_Notdetected”; in data set [11] it was “Metabolite_Detected”; in data set [12], “Metabolite_Detected”; in data set [13], “Metabolite_Detected”. Further, in [3], the hepatic extraction ratio at 10 µM was found to be 0.84.
As to `N#Cc1ncccc1S(=O)(=O)N1CCN(c2ccc(C(=O)NCc3ccc(F)cc3)nn2)CC1`, the half-life at 10 µM in data set [1] came to 5 min.

For the origin of these results see ChEMBL document CHEMBL4261544, “Structure-metabolism-relationships in the microsomal clearance of piperazin-1-ylpyridazines” (Medchemcomm, 2017).
